Reference: patent US10124076B2, “Imaging agents and methods of use thereof” (Huntington Medical Research Institutes, priority 2007, dated 2018)

Columns and labels:
[1] = T1 relaxation time of the hyperpolarized product, experimentally determined; type: physicochemical
Experimental: Sub-second carbon imaging is greatly simplified when the signal of interest exceeds the background signal from natural abundance resonances. This is possible when a ^13C hyperpolarized agent is injected. […] Long T1 (in excess of ten seconds) is obtained for ^13C in small molecules at sites where there is no directly attached proton. Deuteration can be used to achieve this (e.g., glucose) and it occurs naturally for carbonyls. Enhancements in excess of 1000 from hyperpolarization are obtained in the first 5 T1 (i.e., imaging and spectroscopy experiment should be accomplished within 100-225 seconds after hyperpolarizing the molecules). For the molecules proposed, the hyperpolarization decays with a time constant of 20-45 seconds (T1 relaxation time of the agent) and therefore long scan times are not feasible. In order to overcome this problem, the inventors have successfully reprogrammed several fast imaging pulse sequences with multinuclear capability (multinuclear pulse sequences, broadband amplifier, and multinuclear coils).
Specifically, the inventors have identified four water soluble biomolecules for hyperpolarization. The four molecules can be either commercially obtained or custom synthesized. In the cases of hyperpolarization by PASADENA, both the precursors and the hydrogenated products are water soluble and the hydrogenation experiments have achieved high yields. T1 times were experimentally determined.

[2] = DNP hyperpolarization in HyperSense polarizer, 13C NMR decay of magnetization; settings: DNP hyperpolarized
Source text: FIG. 9. ^13C NMR spectrum of DNP hyperpolarized CD3 ^13COO^−Na using OX63 radical (Sample 1). The SNR from the spectral sequence depicted in FIG. 9 are shown in the corresponding table.
FIG. 10. 13C NMR spectrum of hyperpolarized CD3 ^13COO^−Na^+ using Finland radical (Sample 2). The SNR from the spectral sequence depicted in FIG. 10 are shown in the corresponding table.
C. A sample of the proposed molecule, Sodium ^13Cl-acetate-d3, was hyperpolarized in water with two different electron donors (FIGS. 9 & 10) in a DNP HyperSense polarizer, and the time course of the decay of the magnetization studied. The SNR obtained from the first spectrum collected from polarized sample 2 is clearly less than that obtained from sample 1, showing that Sodium acetate has a preference for the more polar radical OX63. Both OX63 and Finland are triaryl based radicals and are commercially available form Oxford Instruments, UK. Clearly, the inventors' molecule can render over 10,000 fold signal enhancement by DNP with very long T1 time. The polarization will survive around 325 seconds (5 T1). This allows a large enough time (>5 minutes) window to effectively monitor the first six minutes of uptake and metabolism of hyperpolarized sodium acetate within the glial cells of the rat brain by ^13C NMR.

Substance: 1-^13C glucose [perdeuterated 1-^13C of glucose]
- experimentally determined T1 ([1]; 1-13C of perdeuterated glucose): 20 s
- time window of observing the transfer of polarization (5 T1) ([1]; hyperpolarized glucose metabolized to TCA cycle metabolites): ~100 s

Substance: Sodium ^13Cl-acetate-d3
- polarization survival time (5 T1) [2]: around 325 seconds

Substance: ^13C1-^13C5 deuterated glutamine
- T1 of the Product ([1]; Table 2, product of PASADENA or DNP hyperpolarization): 40 s
